Experimental findings from patent US6310093A (priority 1998, dated 2001) are described below.

Values joined by “and” are separate entries in the source; they are usually repeats but may differ in a detail not shown here. Identical values can stand only once. Like-named read-outs stand apart in the source and are kept apart here.

Test [1] has as its system mixed neuronal-astrocyte cultures. The test can be described thus: cells. The following applies: Mus musculus.
Test [2] deals with ischemic penumbra (dialysate glutamate). The test can be described thus: In vivo microdialysis of ischemic penumbra after MCAO. The following applies: 10 mM glutamine plus 20 mM sodium phosphate, 1 h; ±115%. Details: species or system rat. Here is the method:
In further microdialysis experiments, exogenous glutamine was added to the ischemic penumbra via the probe, and dialysis glutamate was measured, as described in Example 7. When 10 mM glutamine plus 20 mM sodium phosphate were perfused into the penumbra for one hour, dialysate glutamate was elevated 315% as compared to control (±115%). […] The effects on glutamate were much more pronounced than on other amino acids measured; therefore, these studies provided further support for the involvement of extracellular glutaminase activity in producing the elevated levels of glutamate in cortical tissue undergoing ischemic damage.
The middle cerebral arteries of rats were occluded as in EXAMPLE 7, and the rats were returned to their cages overnight. The next morning, dialysis probes ([…], 2 mm length, 20,000 dalton cutoff) were inserted into ischemic penumbra (cortex) and perfused with artificial CSF at 3 μl/min for 1 h prior to collection of 10 minute fractions of dialysate. The effectiveness of the occlusion and the placement of probes were verified by TTC staining of 1 mm sections at the conclusion of the experiment. Amino acids in the dialysate were measured by reverse phase HPLC with fluorescence detection, after derivatization of the dialysates with o-phthaldialdehyde and N-acetyl-L-cysteine […]

The test system of test [3] is pure neuronal cultures (cortical neurons) exposed to glutamine. The test can be described thus: cells. The note with it: Mus musculus, Cortical neurone, 24 h, read-out: neuronal LDH release. Background: LDH leaks from cells whose membrane has failed.
Test [4] deals with mixed neuronal-astrocyte cultures.

With `NC(=O)CC[C@H](N)C(=O)O` [Gln, glutamine], the cytotoxicity at 2000 µM is 48.5 ± 14.4% in test [1] (7 h, read-out: neuronal LDH release); 42.2% in test [1] (24 h, read-out: % cell death (LDH)); approximately 40% in test [1] (read-out: neuronal death in hypoxia with added glutamine); 62 ± 22% in test [3]. Further, the “dialysate glutamate elevation vs control” value in test [2] was found to be 315%. Moreover, in test [4], the Glu was 3.1 ± 0.28 and 3.88 ± 0.14. Further, the medium glutamate in test [4] worked out at 2.3 ± 1.1 μM Glu.
